Molecular target: T1, acetylcholine-binding protein (AcAChBP) (Aplysia californica, UniProt Q8WSF8)
T1 construct: recombinant AcAChBP with a C-terminal Tobacco etch virus cleavage site and His6 tag; homopentamer
T1 sequence (Q8WSF8 20-236): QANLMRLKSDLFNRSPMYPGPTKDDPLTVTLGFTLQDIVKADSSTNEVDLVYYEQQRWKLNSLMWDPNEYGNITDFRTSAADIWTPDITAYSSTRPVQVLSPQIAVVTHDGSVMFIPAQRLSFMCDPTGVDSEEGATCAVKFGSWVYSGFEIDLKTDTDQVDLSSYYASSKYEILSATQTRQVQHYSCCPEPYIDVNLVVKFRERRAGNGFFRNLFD
Assay: ITC and […] Å crystal structure

`O=c1c(CCCO)ccc2n1C[C@@H]1CNC[C@H]2C1` [compound 4, (1R,5S)-9-(3-hydroxypropyl)-1,2,3,4,5,6-hexahydro-1,5-methano-8H-pyrido[1,2a][1,5]diazocin-8-one] was tested, and the Kd was 53.3 µM.

— publication PMC7010356, “The thermodynamic profile and molecular interactions of a C(9)-cytisine derivative-binding acetylcholine-binding protein from Aplysia californica” (Acta Crystallographica. Section F, Structural Biology …, 2020)
